{"source": "patent US4415570A", "about": "“Nicotinic acid derivatives” (Nippon Shinyaku Co. Ltd., priority 1981, dated 1983)", "key": {"[1]": {"system": "reversed passive Arthus reaction", "test": "Reversed passive Arthus reaction (RPAR) inhibition, leakage area of Evans Blue", "format": "in vivo, rats", "details": "for RPAR inhibitory action: oral administration", "protocol": "Activity of RPAR inhibition of the compounds of the present invention was measured in the following manner. Anti-BSA serum was obtained from rabbits that were previously administered bovine serum albumin (\"BSA\"). The anti-BSA serum was applied to four parts of the skin of the abdomens of rats previously treated with BSA and Evans Blue. The anti-BSA serum and the BSA and Evans Blue were administered to the rats subcutaneously. […] The local inflammation was determined by examining each of the four inflamed parts and measuring for each part the area from which there was leakage of Evans Blue. The data from the test animals were compared to the control animals, and a reduction in the leakage area of 20% or more was defined as a positive effect. The RPAR inhibition activity is reported as the number of positive effects per animal, divided by 4. Thus, two positive effects would be an RPAR of 2/4."}, "[2]": {"system": "carrageenin edema", "test": "carrageenin edema inhibiting activity", "format": "in vivo", "details": "intraperitoneal injection, 50 mg/kg", "description": "The RPAR inhibition activity of the compounds (I) of the present invention is not related to its anti-inflammatory activity."}, "[3]": {"details": "Table I, 200 mg/kg body weight orally, number of positive effects (leakage area reduced 20% or more) out of 4 parts"}, "[4]": {"details": "Table 2, 500 mg/kg p.o., number of positive effects out of 4 parts"}, "[5]": {"details": "Table 2, 200 mg/kg p.o., number of positive effects out of 4 parts"}}, "data": [{"smiles": "O=C(Nc1nc(-c2ccc(Cl)cc2)nc(N2CCCC2)n1)c1cccnc1", "note": "[Compound 1]", "values": [{"measurement": "RPAR Inhibition", "setting": "[1]; [3]", "value": "2/4"}]}, {"smiles": "O=C(Nc1nc(-c2ccc(Cl)cc2)nc(N2CCOCC2)n1)c1cccnc1", "note": "[Compound 2]", "values": [{"measurement": "RPAR Inhibition", "setting": "[1]; [3]", "value": "2/4"}]}, {"smiles": "O=C(Nc1nc(-c2ccccc2Cl)nc(N2CCCCC2)n1)c1cccnc1", "note": "[Compound 3]", "values": [{"measurement": "RPAR Inhibition", "setting": "[1]; [3]", "value": "2/4"}]}, {"smiles": "O=C(Nc1nc(-c2ccccc2Cl)nc(N2CCOCC2)n1)c1cccnc1", "note": "[Compound 4]", "values": [{"measurement": "RPAR Inhibition", "setting": "[1]; [3]", "value": "2/4"}]}, {"smiles": "O=C(Nc1nc(-c2ccccc2Cl)nc(N2CCCC2)n1)c1cccnc1", "note": "[Compound 5]", "values": [{"measurement": "RPAR Inhibition", "setting": "[1]; [3]", "value": "2/4"}]}, {"smiles": "CCCCNc1nc(NC(=O)c2cccnc2)nc(-c2ccc(Cl)c(Cl)c2)n1", "note": "[Compound 6]", "values": [{"measurement": "RPAR Inhibition", "setting": "[1]; [3]", "value": "2/4"}]}, {"smiles": "CCN(CC)c1nc(NC(=O)c2cccnc2)nc(-c2ccc(Cl)c(Cl)c2)n1", "note": "[Compound 7]", "values": [{"measurement": "RPAR Inhibition", "setting": "[1]; [3]", "value": "3/4"}]}, {"smiles": "O=C(Nc1nc(-c2cc(Cl)ccc2Cl)nc(N2CCCCC2)n1)c1cccnc1", "note": "[Compound 8]", "values": [{"measurement": "RPAR Inhibition", "setting": "[1]; [3]", "value": "3/4"}]}, {"smiles": "O=C(Nc1nc(-c2cc(Cl)ccc2Cl)nc(N2CCOCC2)n1)c1cccnc1", "note": "[Compound 9]", "values": [{"measurement": "RPAR inhibition activity (in words)", "setting": "[1]", "value": "strongly inhibits RPAR"}, {"measurement": "RPAR Inhibition", "setting": "[1]; [3]", "value": "4/4"}, {"measurement": "carrageenin edema inhibiting activity", "setting": "[2]", "value": 21, "unit": "%"}]}, {"smiles": "CN(C)c1nc(NC(=O)c2cccnc2)nc(-c2ccc(F)cc2)n1", "note": "[Compound 10]", "values": [{"measurement": "RPAR Inhibition", "setting": "[1]; [3]", "value": "3/4"}]}, {"smiles": "Nc1nc(N)nc(-c2cc(Cl)ccc2Cl)n1", "note": "[Compound 11]", "values": [{"measurement": "RPAR inhibition activity (in words)", "setting": "[1]", "value": "do not exhibit RPAR inhibition activity at all"}, {"measurement": "RPAR Inhibition", "setting": "[1]; [4]", "value": "0/4"}]}, {"smiles": "Nc1nc(N)nc(-c2ccc(Cl)cc2)n1", "note": "[Compound 12]", "values": [{"measurement": "RPAR inhibition activity (in words)", "setting": "[1]", "value": "do not exhibit RPAR inhibition activity at all"}, {"measurement": "RPAR Inhibition", "setting": "[1]; [4]", "value": "0/4"}]}, {"smiles": "Nc1nc(NC(=O)c2cccnc2)nc(-c2ccccc2)n1", "note": "[Compound 13]", "values": [{"measurement": "RPAR inhibition activity (in words)", "setting": "[1]", "value": "little or no RPAR inhibition activity"}, {"measurement": "RPAR Inhibition", "setting": "[1]; [5]", "value": "0/4"}, {"measurement": "RPAR Inhibition", "setting": "[1]; [4]", "value": "2/4"}]}, {"smiles": "Nc1nc(NC(=O)c2cccnc2)nc(-c2c(Cl)cccc2Cl)n1", "note": "[Compound 14]", "values": [{"measurement": "RPAR Inhibition", "setting": "[1]; [5]", "value": "0/4"}]}, {"smiles": "Nc1nc(NC(=O)c2cccnc2)nc(-c2ccc(Cl)cc2)n1", "note": "[Compound 15]", "values": [{"measurement": "RPAR inhibition activity (in words)", "setting": "[1]", "value": "no RPAR inhibition activity"}, {"measurement": "RPAR Inhibition", "setting": "[1]; [5]", "value": "0/4"}, {"measurement": "carrageenin edema inhibiting activity", "setting": "[2]", "value": 56.8, "unit": "%"}]}, {"smiles": "Nc1nc(NC(=O)c2cccnc2)nc(-c2cccc(Cl)c2)n1", "note": "[Compound 16]", "values": [{"measurement": "RPAR Inhibition", "setting": "[1]; [5]", "value": "0/4"}]}, {"smiles": "Nc1nc(NC(=O)c2cccnc2)nc(-c2ccccc2I)n1", "note": "[Compound 17]", "values": [{"measurement": "RPAR Inhibition", "setting": "[1]; [5]", "value": "1/4"}]}, {"smiles": "CC(=O)Oc1ccccc1C(=O)O", "note": "[aspirin]", "values": [{"measurement": "RPAR inhibitory action", "setting": "[1]; 200 mg/kg", "value": "no RPAR inhibitory action"}]}, {"smiles": "COc1ccc2c(c1)c(CC(=O)O)c(C)n2C(=O)c1ccc(Cl)cc1", "note": "[indomethacin]", "values": [{"measurement": "RPAR inhibitory action", "setting": "[1]; 10 mg/kg", "value": "no RPAR inhibitory action"}]}, {"smiles": "CCCCC1C(=O)N(c2ccccc2)N(c2ccccc2)C1=O", "note": "[phenylbutazone]", "values": [{"measurement": "RPAR inhibitory action", "setting": "[1]; 100 mg/kg", "value": "no RPAR inhibitory action"}]}]}
